Consider one compound from ChEMBL document CHEMBL4184249, “Structural development of tetrachlorophthalimides as liver X receptor β (LXRβ)-selective agonists with improved aqueous solubility” (Bioorg Med Chem Lett, 2018).

The structures appear in SMILES notation. Calls of active or inactive are those of the source. No cut-off for these calls is given here.

In assay [1] the target is T1, Oxysterols receptor LXR-beta (Homo sapiens) (UniProt P55055).
T1 sequence (whole entry): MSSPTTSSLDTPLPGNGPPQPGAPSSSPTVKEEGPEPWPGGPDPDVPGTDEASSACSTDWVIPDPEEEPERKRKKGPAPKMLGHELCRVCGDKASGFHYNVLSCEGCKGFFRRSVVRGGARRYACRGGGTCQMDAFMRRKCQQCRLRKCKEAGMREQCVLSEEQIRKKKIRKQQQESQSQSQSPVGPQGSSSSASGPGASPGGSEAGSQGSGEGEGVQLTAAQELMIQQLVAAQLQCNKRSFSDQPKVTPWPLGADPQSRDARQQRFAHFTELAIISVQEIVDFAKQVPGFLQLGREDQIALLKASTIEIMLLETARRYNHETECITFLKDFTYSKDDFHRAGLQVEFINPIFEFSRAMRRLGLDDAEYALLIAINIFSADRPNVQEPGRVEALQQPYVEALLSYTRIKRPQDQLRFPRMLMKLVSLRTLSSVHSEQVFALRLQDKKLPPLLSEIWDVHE
Briefly: Agonist activity at LXRbeta in human THP1 cells assessed as increase in ABCA1 mRNA expression at 0.1 uM by real-time quantitative RT-PCR method. The class given is cell-based.

Assay [2] has as its target T2, Oxysterols receptor LXR-beta (Homo sapiens, UniProt P55055). Briefly: Agonist activity at LXRbeta ligand-binding domain (unknown origin) at 3 uM incubated for 1.5 hrs using fluorescein-labeled coactivator peptide by TR-FRET competitive binding assay relative to T0901317. On the technique in general: Time-resolved FRET reads energy transfer from a long-lived donor to a nearby acceptor.

For assay [3], the target named is T3, Peroxisome proliferator-activated receptor gamma (Homo sapiens) (UniProt P37231).
T3 sequence (whole entry): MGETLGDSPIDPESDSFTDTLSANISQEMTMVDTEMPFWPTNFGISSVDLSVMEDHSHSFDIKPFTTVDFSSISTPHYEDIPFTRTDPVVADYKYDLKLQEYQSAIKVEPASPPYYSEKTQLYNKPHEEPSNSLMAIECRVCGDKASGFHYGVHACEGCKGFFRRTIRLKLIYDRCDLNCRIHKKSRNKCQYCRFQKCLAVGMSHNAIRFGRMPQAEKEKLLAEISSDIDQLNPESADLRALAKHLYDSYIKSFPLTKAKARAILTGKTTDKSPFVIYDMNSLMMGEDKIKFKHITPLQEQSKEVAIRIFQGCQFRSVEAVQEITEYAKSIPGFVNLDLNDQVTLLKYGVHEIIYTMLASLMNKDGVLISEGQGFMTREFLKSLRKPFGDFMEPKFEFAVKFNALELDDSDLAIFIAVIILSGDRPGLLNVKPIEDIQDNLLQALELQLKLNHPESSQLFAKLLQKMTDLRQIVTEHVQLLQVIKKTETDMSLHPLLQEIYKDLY
In words: Agonist activity at GAL4-tagged PPARgamma (unknown origin) expressed in HEK293 cells co-expressing CMX-beta-galactosidase at 0.3 to 30 uM incubated for 16 hrs by luciferase reporter gene assay. In kind it is cell-based.

The target of assay [4] is T4, Oxysterols receptor LXR-alpha (Mus musculus) (UniProt Q9Z0Y9).
T4 sequence (whole entry): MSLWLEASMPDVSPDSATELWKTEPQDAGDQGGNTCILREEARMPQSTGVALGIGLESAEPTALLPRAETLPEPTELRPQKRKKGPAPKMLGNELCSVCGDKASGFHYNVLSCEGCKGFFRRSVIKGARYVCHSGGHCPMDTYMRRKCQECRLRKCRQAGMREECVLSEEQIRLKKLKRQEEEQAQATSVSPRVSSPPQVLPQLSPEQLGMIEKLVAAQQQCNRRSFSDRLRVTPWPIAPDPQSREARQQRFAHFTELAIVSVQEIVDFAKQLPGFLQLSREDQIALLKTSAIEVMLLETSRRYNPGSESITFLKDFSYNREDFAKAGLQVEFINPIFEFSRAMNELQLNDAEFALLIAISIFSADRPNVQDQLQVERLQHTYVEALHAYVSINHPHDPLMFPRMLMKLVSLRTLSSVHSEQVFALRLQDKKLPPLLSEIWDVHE
Briefly: Agonist activity at mouse LXRalpha expressed in HEK293 cells co-expressing CMX-beta-galactosidase at 30 uM incubated for 16 hrs by luciferase reporter gene assay. The class given is cell-based.

For assay [5], the target named is T5, Oxysterols receptor LXR-alpha (Homo sapiens) (UniProt Q13133).
T5 sequence (whole entry): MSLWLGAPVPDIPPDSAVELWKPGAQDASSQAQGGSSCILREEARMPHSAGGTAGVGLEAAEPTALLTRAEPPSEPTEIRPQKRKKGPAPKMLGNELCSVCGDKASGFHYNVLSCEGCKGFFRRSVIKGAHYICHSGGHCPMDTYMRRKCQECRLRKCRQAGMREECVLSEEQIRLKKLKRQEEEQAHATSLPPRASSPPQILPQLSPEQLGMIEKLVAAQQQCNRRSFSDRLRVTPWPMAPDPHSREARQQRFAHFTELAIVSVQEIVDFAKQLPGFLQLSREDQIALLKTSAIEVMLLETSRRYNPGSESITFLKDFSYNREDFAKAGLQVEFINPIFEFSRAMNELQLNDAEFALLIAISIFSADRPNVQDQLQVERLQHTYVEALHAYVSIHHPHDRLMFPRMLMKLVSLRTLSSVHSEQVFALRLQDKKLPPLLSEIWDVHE
In words: Agonist activity at human LXRalpha expressed in HEK293 cells co-expressing CMX-beta-galactosidase at 30 uM incubated for 16 hrs by luciferase reporter gene assay. The class given is cell-based. Background: In a reporter assay the amount or activity of a reporter protein is the signal.

Assay [6] has as its target T1, Oxysterols receptor LXR-beta (Homo sapiens). Briefly: Agonist activity at human LXRbeta expressed in HEK293 cells co-expressing CMX-beta-galactosidase incubated for 16 hrs by luciferase reporter gene assay relative to T0901317. The class given is cell-based.
The target of assay [7] is T2, Oxysterols receptor LXR-beta. Briefly: Agonist activity at LXRbeta ligand-binding domain (unknown origin) incubated for 1.5 hrs using fluorescein-labeled coactivator peptide by TR-FRET competitive binding assay.
Assay [8] addresses T6, Bile acid receptor (Homo sapiens) (UniProt Q96RI1).
T6 sequence (whole entry): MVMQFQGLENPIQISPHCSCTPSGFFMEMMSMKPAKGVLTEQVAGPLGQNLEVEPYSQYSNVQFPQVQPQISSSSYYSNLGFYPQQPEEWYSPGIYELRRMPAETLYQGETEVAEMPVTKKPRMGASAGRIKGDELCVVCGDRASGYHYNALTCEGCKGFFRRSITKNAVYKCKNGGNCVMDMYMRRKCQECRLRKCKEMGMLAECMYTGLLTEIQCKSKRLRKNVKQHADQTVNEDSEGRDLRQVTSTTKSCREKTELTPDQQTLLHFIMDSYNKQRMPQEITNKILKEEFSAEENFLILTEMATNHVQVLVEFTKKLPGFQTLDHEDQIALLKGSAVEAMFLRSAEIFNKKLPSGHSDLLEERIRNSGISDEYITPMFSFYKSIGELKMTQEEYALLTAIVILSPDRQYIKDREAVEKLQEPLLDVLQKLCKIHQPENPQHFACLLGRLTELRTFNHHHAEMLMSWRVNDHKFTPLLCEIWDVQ
Briefly: Agonist activity at GAL4-tagged FXR (unknown origin) expressed in HEK293 cells co-expressing CMX-beta-galactosidase at 0.3 to 30 uM incubated for 16 hrs by luciferase reporter gene assay. In kind it is cell-based.

With `O=C1c2c(Cl)c(Cl)c(Cl)c(Cl)c2C(=O)N1c1ccccc1/C=C/c1cccs1`, the outcome in assay [1] was Active. Moreover, the results for the Efficacy in assay [2], in assay [6] and in assay [8] were 14%, 149% and 9%, respectively. Besides, the outcome in assay [3], in assay [4] and in assay [5] was inactive. This compound showed an EC50 in assay [7] of 40.4 nM.

As usually defined, the EC50 is the midpoint of the concentration-response curve. A high value points to a need for much substance.
